From ChEMBL document CHEMBL1134245, “Two novel and potent 3-[(o-methoxyphenyl)piperazinylethyl]-5-phenylthien” (Bioorg Med Chem Lett, 2001)

Assays:
[1] = molecular target: Serotonin 1 (5-HT1) receptor (Rattus norvegicus, UniProt P28564+P30940+P19327+P28565); assay: Ancillary Binding affinity towards rat 5-hydroxytryptamine 1 receptor; format: protein assay
[2] = molecular target: T1, Alpha-1D adrenergic receptor (Homo sapiens, UniProt P25100); assay: Binding affinity towards human Alpha-1D adrenergic receptor
T1 sequence (P25100 whole entry): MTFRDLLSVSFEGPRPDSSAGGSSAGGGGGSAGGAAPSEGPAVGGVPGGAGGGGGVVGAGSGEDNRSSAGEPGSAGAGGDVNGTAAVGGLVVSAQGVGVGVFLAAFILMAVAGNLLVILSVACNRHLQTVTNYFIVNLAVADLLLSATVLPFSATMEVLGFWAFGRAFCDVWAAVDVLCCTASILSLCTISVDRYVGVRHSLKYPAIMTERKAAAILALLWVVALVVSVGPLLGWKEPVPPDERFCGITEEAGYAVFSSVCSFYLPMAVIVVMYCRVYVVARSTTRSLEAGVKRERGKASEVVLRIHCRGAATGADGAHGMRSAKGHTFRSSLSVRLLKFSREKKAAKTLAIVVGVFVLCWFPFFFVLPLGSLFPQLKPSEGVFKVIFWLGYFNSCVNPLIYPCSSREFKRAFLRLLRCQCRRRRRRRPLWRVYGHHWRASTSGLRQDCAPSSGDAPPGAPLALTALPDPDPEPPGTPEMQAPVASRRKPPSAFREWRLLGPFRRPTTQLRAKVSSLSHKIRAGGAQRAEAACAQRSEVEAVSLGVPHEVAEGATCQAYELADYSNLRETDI

[3] = molecular target: T2, Alpha-2C adrenergic receptor (Homo sapiens, UniProt P18825); assay: Ancillary Binding affinity to cloned human Alpha-2C adrenergic receptor
T2 sequence (P18825 whole entry): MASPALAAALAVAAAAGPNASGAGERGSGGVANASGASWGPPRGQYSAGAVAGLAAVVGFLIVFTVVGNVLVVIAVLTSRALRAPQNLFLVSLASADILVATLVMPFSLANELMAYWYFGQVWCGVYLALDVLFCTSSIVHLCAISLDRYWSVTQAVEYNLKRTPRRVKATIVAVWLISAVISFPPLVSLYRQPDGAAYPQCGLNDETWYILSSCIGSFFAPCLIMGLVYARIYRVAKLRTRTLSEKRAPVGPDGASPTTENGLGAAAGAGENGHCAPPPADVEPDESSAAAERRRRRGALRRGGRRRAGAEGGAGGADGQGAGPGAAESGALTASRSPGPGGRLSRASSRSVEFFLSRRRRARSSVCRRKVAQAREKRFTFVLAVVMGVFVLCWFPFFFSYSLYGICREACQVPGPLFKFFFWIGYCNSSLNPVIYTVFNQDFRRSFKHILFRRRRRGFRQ

[4] = molecular target: T3, Alpha-2B adrenergic receptor (Rattus norvegicus, UniProt P19328); assay: Ancillary Binding affinity towards rat alpha-2B receptor
T3 sequence (P19328 whole entry): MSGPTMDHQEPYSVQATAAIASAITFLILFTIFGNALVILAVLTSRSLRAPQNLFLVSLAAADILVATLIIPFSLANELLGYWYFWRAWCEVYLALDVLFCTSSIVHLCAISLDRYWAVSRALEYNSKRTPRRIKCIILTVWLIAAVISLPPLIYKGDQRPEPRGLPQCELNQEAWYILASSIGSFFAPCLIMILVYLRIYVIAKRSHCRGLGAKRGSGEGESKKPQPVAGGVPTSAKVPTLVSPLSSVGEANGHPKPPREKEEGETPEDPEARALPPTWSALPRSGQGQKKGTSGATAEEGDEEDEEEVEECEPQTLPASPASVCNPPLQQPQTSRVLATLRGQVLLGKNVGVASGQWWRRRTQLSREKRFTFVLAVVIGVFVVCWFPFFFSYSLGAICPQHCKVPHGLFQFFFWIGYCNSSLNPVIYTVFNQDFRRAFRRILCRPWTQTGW

[5] = molecular target: T4, Alpha-1B adrenergic receptor (Homo sapiens, UniProt P35368); assay: Binding affinity towards human Alpha-1B adrenergic receptor
T4 sequence (P35368 whole entry): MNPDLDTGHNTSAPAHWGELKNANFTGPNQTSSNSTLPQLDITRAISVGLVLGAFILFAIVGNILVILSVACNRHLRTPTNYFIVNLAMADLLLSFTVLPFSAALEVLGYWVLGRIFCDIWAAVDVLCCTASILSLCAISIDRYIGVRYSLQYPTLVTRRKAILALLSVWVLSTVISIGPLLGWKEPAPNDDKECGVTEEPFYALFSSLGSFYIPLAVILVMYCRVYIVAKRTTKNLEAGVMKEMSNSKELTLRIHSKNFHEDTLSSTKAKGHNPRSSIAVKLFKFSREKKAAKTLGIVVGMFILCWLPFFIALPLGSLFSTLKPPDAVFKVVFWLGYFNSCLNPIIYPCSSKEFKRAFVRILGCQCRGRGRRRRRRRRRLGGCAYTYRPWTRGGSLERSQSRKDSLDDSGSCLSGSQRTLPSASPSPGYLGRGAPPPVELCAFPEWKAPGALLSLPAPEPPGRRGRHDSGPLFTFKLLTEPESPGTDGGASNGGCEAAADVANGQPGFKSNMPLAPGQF

[6] = molecular target: T5, Alpha-1A adrenergic receptor (Homo sapiens, UniProt P35348); assay: Binding affinity for human Alpha-1A adrenergic receptor
T5 sequence (P35348 whole entry): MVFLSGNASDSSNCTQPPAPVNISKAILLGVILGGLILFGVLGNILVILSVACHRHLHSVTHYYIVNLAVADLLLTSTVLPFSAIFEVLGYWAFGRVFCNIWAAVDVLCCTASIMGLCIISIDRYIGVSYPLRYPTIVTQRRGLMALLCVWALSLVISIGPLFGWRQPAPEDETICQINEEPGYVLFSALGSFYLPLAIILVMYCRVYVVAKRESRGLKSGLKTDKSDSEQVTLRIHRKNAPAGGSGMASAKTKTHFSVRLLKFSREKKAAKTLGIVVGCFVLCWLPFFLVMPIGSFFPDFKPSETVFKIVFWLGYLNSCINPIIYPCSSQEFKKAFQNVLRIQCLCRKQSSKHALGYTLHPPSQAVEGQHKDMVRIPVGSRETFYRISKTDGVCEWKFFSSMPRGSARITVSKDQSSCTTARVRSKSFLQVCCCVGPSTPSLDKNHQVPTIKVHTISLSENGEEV

D(1A) dopamine receptor = D(1A) dopamine receptor (Rattus norvegicus, UniProt P18901); assay: Ancillary Binding affinity to rat Dopamine receptor D1
Chain of D(1A) dopamine receptor (P18901 whole entry): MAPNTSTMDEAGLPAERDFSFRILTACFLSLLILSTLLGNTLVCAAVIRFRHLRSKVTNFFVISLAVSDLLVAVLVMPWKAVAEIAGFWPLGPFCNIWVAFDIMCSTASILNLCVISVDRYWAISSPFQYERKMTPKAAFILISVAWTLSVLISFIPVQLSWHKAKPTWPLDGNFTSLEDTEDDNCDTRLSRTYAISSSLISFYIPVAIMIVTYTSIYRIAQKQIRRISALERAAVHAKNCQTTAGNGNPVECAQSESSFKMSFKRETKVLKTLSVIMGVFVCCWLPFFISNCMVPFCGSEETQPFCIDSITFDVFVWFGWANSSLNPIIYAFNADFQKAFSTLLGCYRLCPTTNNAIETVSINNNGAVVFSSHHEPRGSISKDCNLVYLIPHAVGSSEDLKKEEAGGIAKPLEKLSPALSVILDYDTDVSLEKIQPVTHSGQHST

SMILES | Ki [1] | Ki [2] | Ki [3] | Ki [4] | Ki [5] | Ki [6] | Ki (D(1A) dopamine receptor)
COc1ccccc1N1CCN(CCn2c(=O)[nH]c3scc(-c4ccccc4)c3c2=O)CC1 [A-119637] | 5490 nM | 0.252 nM | 74.7 nM | 71 nM | 4.66 nM | 2.63 nM | 6090 nM
COc1ccccc1N1CCN(CCn2c(=O)[nH]c3scc(-c4cccc(C)c4)c3c2=O)CC1 [A-123189] | 12300 nM | 0.312 nM | 82 nM | 66.6 nM | 9.09 nM | 4.17 nM | 12300 nM
